Results published in patent publication US4447452A, “N[(2-Naphthalenyl)thioxomethyl]glycine derivatives” (Ayerst, McKenna & Harrison Inc., priority 1981, dated 1984).

Experiments:
aldose reductase [1] = settings: literature report; cited from earlier work
aldose reductase [2] = target: T1, aldose reductase (Bos taurus, UniProt P16116); test: in vitro aldose reductase inhibition (modified Hayman and Kinoshita procedure, enzyme from bovine lens); format: biochemical; settings: read-out: % Inhibition at Different Molar Concentrations (in vitro); for inhibition at 10 µM: 10^-5 molar; for inhibition at 1 µM: 10^-6 molar; for inhibition at 0.1 µM: 10^-7 molar
T1 construct: preparation of the enzyme from bovine lens; from tissue; host or cells: bovine lens
Protocol: In the present case the procedure of Hayman and Kinoshita is modified in that the final chromatography step is omitted in the preparation of the enzyme from bovine lens.
The following results were obtained when the compounds of this invention were evaluated in the above in vitro test.

O=C(O)CN1C(=O)c2cccc3cccc(c23)C1=O [1,3-Dioxo-1H-benz[de]isoquinoline-2(3H)-acetic acid]
inhibition of aldose reductase (in words) (aldose reductase [1]): effective inhibitor of aldose reductase

CN(CC(=O)O)C(=S)c1ccc2c(Br)cccc2c1 [CH3 5-Br, N-[(5-bromo-2-naphthalenyl)thioxomethyl]-N-methylglycine]
inhibition at 10 µM (aldose reductase [2]): 87%
inhibition at 1 µM (aldose reductase [2]): 70%
inhibition at 0.1 µM (aldose reductase [2]): 21%

CN(CC(=O)O)C(=S)c1ccc2cc(Br)ccc2c1 [CH3 6-Br, N-[(6-Bromo-2-naphthalenyl)thioxomethyl]-N-methylglycine]
inhibition at 10 µM (aldose reductase [2]): 84%
inhibition at 1 µM (aldose reductase [2]): 60%
inhibition at 0.1 µM (aldose reductase [2]): 19%

O=C1NC(=O)[C@@]2(CCOc3ccc(F)cc32)N1 [sorbinil, (S)-6-Fluoro-2,3-dihydrospiro(4H-1-benzopyran-4,4'-imidazolidine)-2',5'-dione]
inhibition of aldose reductase (in words) (aldose reductase [1]): aldose reductase inhibiting properties
